Data on one compound can be found in ChEMBL document CHEMBL5241138, “Inhibitors of Interleukin 4 Induced Protein 1 (IL4I1) as Potential Treatment for Cancer” (ACS Med Chem Lett, 2023).

The assay concerns the target T1, L-amino-acid oxidase (Homo sapiens, UniProt Q96RQ9).
T1 sequence (Q96RQ9 whole entry): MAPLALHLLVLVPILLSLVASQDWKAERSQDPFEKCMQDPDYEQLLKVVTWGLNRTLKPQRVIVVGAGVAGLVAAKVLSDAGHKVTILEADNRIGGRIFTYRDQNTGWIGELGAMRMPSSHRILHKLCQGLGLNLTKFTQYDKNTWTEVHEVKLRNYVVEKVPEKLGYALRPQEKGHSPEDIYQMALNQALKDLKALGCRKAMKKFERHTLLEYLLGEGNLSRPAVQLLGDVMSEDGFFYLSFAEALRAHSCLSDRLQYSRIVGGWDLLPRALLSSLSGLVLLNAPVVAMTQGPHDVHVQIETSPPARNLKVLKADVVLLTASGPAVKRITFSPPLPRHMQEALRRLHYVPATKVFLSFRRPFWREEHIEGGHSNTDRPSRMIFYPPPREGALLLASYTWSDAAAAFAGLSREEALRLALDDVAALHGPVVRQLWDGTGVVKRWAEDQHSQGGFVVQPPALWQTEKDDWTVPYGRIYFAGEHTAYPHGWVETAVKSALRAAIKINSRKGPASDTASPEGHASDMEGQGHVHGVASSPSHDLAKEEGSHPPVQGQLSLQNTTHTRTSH
Nature of the assay: Inhibition of C-terminal 6-His tagged recombinant human IL4I1 (Gln22 to His567 residues) expressed in CHO cells using Phe/Tyr/Trp as substrate assessed as inhibition of H2O2 production measured after 240 mins by Amplex red and horseradish peroxidase based fluorescence assay.

By EC50 is commonly meant the concentration giving half of the maximal effect. Consider `O=C1C(=O)N(C2C[C@@H]3C[C@@H]3C2)CCN1Cc1ccc(-c2nccs2)nn1` (stereo partly specified), for which the EC50 amounted to 23 nM.
